Measured values reported in US8853373B2, “Method and reagent for gene sequence analysis” (Hitachi, Ltd., priority 2009, dated 2014).

How the values were obtained:
Assay type in all cases: biochemical
[1] = system: nucleotides G, C, and A (Sequence GA, Sequence CG, Sequence AG); assay: Exclusivity of the other nucleotides (G, C, and A), elongation luminescence; settings: CG, AG, luminescence normalized to dCTP, dGTP, dTTP as 1
Protocol: (§1) Incorporation into nucleic acid was evaluated as follows. First, one of the above sequences was used as a target. Next, the primer was made to complementarily bind to the target. Then, an elongation experiment was carried out using the respective nucleic acid substrates for that sample. The synthesized nucleic acid substrate requires an affinity (complementary characteristics) with nucleotide T, and exclusivity of the other nucleotides (G, C, and A). The affinity with nucleotide T was evaluated using the Sequence TG and the primer. The exclusivity of the other nucleotides (G, C, and A) was evaluated using the respective Sequence GA, Sequence CG, and Sequence AG, and the primer. In addition, Sequence 5T was used for the evaluation of an ability of continuous incorporation into nucleotide T.
(§2) A sequencing method using a stepwise chemical reaction is described below. First, 35 μL of ultrapure water, 5 μL of oligo DNA (10 μM) of analysis object (target), and 5 μL of a primer (20 μM) were mixed with 5 μL of a hybridization buffer (10 mM Tris-Acetate, 20 mM Mg-Acetate, pH 7.75) (a sample solution: the final volume was 50 μL). Then, the sample solution was heated at 94° C. for 20 seconds, and reacted at a Tm temperature of the primer for 2 minutes. After that, 0.5 μL, (target: […], primer: […]) of this sample solution, 20 of a luminescence reagent which is designated in Condition 2 of Table 1, and 0.2 μL of a polymerase enzyme (the final concentration: 0.05 U/4) were mixed to prepare a reaction reagent (the final volume was 20.7 μL). To this reaction reagent was added 0.4 μL of 100 μM nucleic acid substrate (the final concentration 2 μM). When nucleic acid elongation occurs, bioluminescence derived from pyrophosphate of the elongation reaction product can be observed. The reaction has a luminescence peak a few seconds after the reaction initiation. […] This luminescence peak value is virtually proportional to the amount of generated pyrophosphate. Measurement of the peak value enables a degree of nucleic acid elongation to be estimated.
Next, with regard to the respective synthetic substrates, the exclusivity of the other nucleotides (G, C, and A) was assessed using each of Sequence GA, Sequence CG, and Sequence AG and the primer. […] In addition, a background luminescence component of the respective substrates was compensated by taking its difference into account in a manner similar to that of the preceding figures.

DNA Sequence S2 = assay: Sequence analysis by stepwise chemical reaction (pyrogram), PPDK system, Condition 4; settings: DNA Sequence S2 (3 consecutive nucleotides)
Protocol: Therefore, a sequence having 3 consecutive nucleotides of T was analyzed for comparison. Analyzed DNA Sequence S2 and a primer P3 are described below.
Of note is that Sequence P3 represents a primer sequence. This primer can complementarily bind to the underlined portion of the above DNA Sequence S2. FIGS. 16 to 20 show the results of a sequence analysis. In addition, the reagent conditions were listed together in the following Table 3.
In this experiment, an enzyme system which converts PPi into ATP has employed an enzyme system in which PPi and AMP are converted into ATP by PPDK as described in the conventional technique (Patent Literature 4). The items of the figure are identical to those of FIG. 15. At the bottom of the respective figures, the injected nucleotide types are designated. At the top, the nucleotide types which have been incorporated into a complementary DNA sequence of analysis object are designated. The substrate was injected in the order of “bases A, T, C, and G”, and 7 cycles were analyzed. As indicated in the target sequence, in this analysis, two regions (Cycle 4 and Cycle 7) having 3 consecutive nucleotides of A incorporated are present. Because of this, a difference in the ability of continuous incorporation of a nucleic acid substrate that is used as a nucleotide A can be assessed. Hereinafter, the details are described.
First, three kinds of the substrates (A3d, dATPαS, and C^7dATP) having the final concentration of 2 μM were used. The results of a sequence analysis will be described (FIGS. 16 to 20). […] At the time of dispensing A (surrounded by the circle ◯) which represented the injected nucleotide type, A3d was used. […] Accordingly, as the signal corresponding to A at the first cycle indicated, background luminescence was observed. Due to this phenomenon, the luminescence signal corresponding to nucleotide A constantly included the increased background luminescence. The symbol • in the figure denotes elongation luminescence corresponding to a nucleotide sequence of a sample. In contrast, the major luminescence without corresponding to the nucleotide sequence is represented by the symbol ∇. […] At the time of dispensing A (surrounded by the circle ◯) which represented the injected nucleotide type, dATPαS was used. The resulting pyrogram and the nucleotide sequence of a sample were compared. The symbol • in the figure denotes elongation luminescence corresponding to a nucleotide sequence of a sample. In contrast, the major luminescence without corresponding to the nucleotide sequence is represented by the symbol ∇. […] At the time of dispensing A (surrounded by the circle ◯) which represented the injected nucleotide type, C^7dATP was used. […] Accordingly, as the signal corresponding to A at the first cycle indicated, big background luminescence was observed. Due to this phenomenon, the luminescence signal corresponding to nucleotide A constantly included the increased background luminescence. The symbol x in the figure denotes just a background luminescence signal. The symbol • denotes elongation luminescence corresponding to a nucleotide sequence of a sample. However, the symbol (•) denotes inclusion of both elongation-derived luminescence and background luminescence. In contrast, the major luminescence without corresponding to the nucleotide sequence is represented by the symbol ∇.

[2] = system: 5 consecutive nucleotides of T (Sequence 5T); assay: Ability of incorporation into consecutive nucleotides of T (Sequence 5T), three consecutive injections; settings: for Continuous incorporation into 5 consecutive T (luminescence derived from incomplete elongation): three injections
Protocol: as §1, §2
Next, by using Sequence 5T, the ability of incorporation of the respective synthetic substrates into consecutive nucleotides of T was evaluated by the following procedure. The reaction reagent was prepared by using Sequence 5T as a target oligo in the same manner as in the case of evaluation of elongation of one nucleotide as described before. In this case, a target oligo 111 and a primer 112 form a complementary strand binding as depicted in FIG. 11(1). Due to the above, when dATP is dispensed into this reaction reagent as a substrate, five molecules of the substrate are consecutively elongated per target molecule as a primer having the substrate at the 3′ end 113, thereby releasing five molecules of pyrophosphate. If the elongation for all the five nucleotides is not completed, a portion of the nucleotide T remains in a single-stranded state. Because of this, when substrate dATP is dispensed again, the portion is elongated only in the case where a portion of incomplete elongation remains. Therefore, the release of pyrophosphate can be detected as luminescence. […] In addition, substrate dCTP, which is complementary to nucleotide G 114, was subsequently dispensed twice to detect luminescence. […]

[3] = final concentration 2 μM, 7 cycles

| SMILES | Exclusivity of the other nucleotides (G, C, and A) [1] | Sequence analysis result as substitute for dATP (DNA Sequence S2; [3]) | Rate of Incomplete Elongation after the First Injection (%) ([2]; 5 consecutive nucleotides, final concentration 4 μM, E1 = luminescence of 2nd and 3rd injections / total of 1st to 3rd) | Rate of Incomplete Elongation after the Second Injection (%) ([2]; 5 consecutive nucleotides, final concentration 4 μM, E2 = luminescence of 3rd injection / total of 1st to 3rd) | Continuous incorporation into 5 consecutive T (luminescence derived from incomplete elongation) ([2]; final concentration 2 μM, then dCTP) | Continuous incorporation into 5 consecutive T (luminescence derived from incomplete elongation) ([2]; final concentration 4 μM (substrate amount doubled)) | Sequence analysis result as substitute for dATP (DNA Sequence S2; final concentration 4 μM) |
| --- | --- | --- | --- | --- | --- | --- | --- |
| Nc1ncnc2c1c(/C=C/C(=O)NCCc1ccncc1)cn2[C@H]1CC(O)[C@@H](COP(=O)(O)OP(=O)(O)OP(=O)(O)O)O1 (some centres unmarked) [A3d] | excellent exclusivity | up to the nucleotide G at Cycle 7, a sequence analysis was found to be able to be definitely carried out | – | – | – | – | – |
| Nc1ncnc2c1ncn2[C@H]1C[C@H](O)[C@@H](COP(O)(=S)OP(=O)(O)OP(=O)(O)O)O1 (some centres unmarked) [dATPαS] | – | incomplete elongation was able to be presumed to occur | 36.8 ± 7.8 | 13.6 ± 5.1 | luminescence derived from incomplete elongation was detected even at the third injection | luminescence derived from incomplete elongation was detected at the third injection | the incomplete elongation is not completely resolved |
